# Assay results reported in paper PMC4728126, “Stable G protein-effector complexes in striatal neurons: mechanism of assembly and role in neurotransmitter signaling” (eLife, 2015).
# Target: T1, D1R (Homo sapiens, UniProt P21728)
# T1 construct: gene DRD1; cDNA from Missouri S&T cDNA Resource Center, transiently expressed in HEK293T/17 with Golf (Gαolf, Venus-Gβ2γ7), Ric-8B and masGRK3ct-Nluc BRET reporter
# Assay: BRET G protein activation assay (masGRK3ct-Nluc / Venus-Gβ[…]γ[…]), HEK293T/[…]
# Format: cell-based
# Details: antagonist, […], against […] dopamine; Golf co-expressed
# T1 sequence (P21728 whole entry): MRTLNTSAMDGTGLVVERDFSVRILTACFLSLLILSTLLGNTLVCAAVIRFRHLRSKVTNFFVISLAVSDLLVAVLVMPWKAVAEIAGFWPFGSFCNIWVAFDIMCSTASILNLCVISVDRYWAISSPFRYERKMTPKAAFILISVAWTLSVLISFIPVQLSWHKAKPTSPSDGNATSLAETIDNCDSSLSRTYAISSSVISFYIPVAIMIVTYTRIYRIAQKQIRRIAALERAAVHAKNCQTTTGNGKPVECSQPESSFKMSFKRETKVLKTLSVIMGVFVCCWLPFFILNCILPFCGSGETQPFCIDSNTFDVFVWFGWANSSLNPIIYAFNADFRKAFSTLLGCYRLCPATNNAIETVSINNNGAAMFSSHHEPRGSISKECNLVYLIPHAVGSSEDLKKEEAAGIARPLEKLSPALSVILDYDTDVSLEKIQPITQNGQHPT
smiles,measurement,value
CN1CCc2cc(Cl)c(O)cc2[C@H]2c3ccccc3CC[C@@H]21 [SCH39166],"BRET G protein activation assay (masGRK3ct-Nluc / Venus-Gβ2γ7), HEK293T/17",application of an antagonist SCH39166 facilitates complex re-association and quenching of the BRET response
